In PubChem BioAssay (NCI):
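Exposure lasted 48 hours, with cells grown in 96-well plates and compounds tested at five concentrations. GI50 marks 50% less growth. Definition used: TGI = concentration required for complete inhibition of growth.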

Tests used:
Experiment in all cases: NCI tumour cell line growth inhibition, 48 h
UO-31 renal = test system: UO-31 renal
SN12C renal = test system: SN12C renal
OVCAR-4 ovarian = test system: OVCAR-4 ovarian
LOX IMVI melanoma = test system: LOX IMVI melanoma
UACC-257 melanoma = test system: UACC-257 melanoma
NCI-H460 lung = test system: NCI-H460 lung
BT-549 breast = test system: BT-549 breast
T-47D breast = test system: T-47D breast
HS 578T breast = test system: HS 578T breast
IGROV1 ovarian = test system: IGROV1 ovarian
SK-MEL-2 melanoma = test system: SK-MEL-2 melanoma
HT29 colon = test system: HT29 colon
SK-MEL-28 melanoma = test system: SK-MEL-28 melanoma
OVCAR-8 ovarian = test system: OVCAR-8 ovarian
HCT-15 colon = test system: HCT-15 colon
HOP-92 NSCLC = test system: HOP-92 NSCLC
DU-145 prostate = test system: DU-145 prostate
MDA-MB-231 breast = test system: MDA-MB-231 breast
NCI/ADR-RES ovarian = test system: NCI/ADR-RES ovarian
RXF 393 renal = test system: RXF 393 renal
NCI-H522 lung = test system: NCI-H522 lung
MDA-MB-435 = test system: MDA-MB-435
K-562 leukemia = test system: K-562 leukemia
SK-OV-3 ovarian = test system: SK-OV-3 ovarian
SNB-19 CNS = test system: SNB-19 CNS
SK-MEL-5 melanoma = test system: SK-MEL-5 melanoma
KM12 colon = test system: KM12 colon
UACC-62 melanoma = test system: UACC-62 melanoma
U251 CNS = test system: U251 CNS
COLO 205 colon = test system: COLO 205 colon
A549 NSCLC = test system: A549 NSCLC
SF-539 CNS = test system: SF-539 CNS
RPMI-8226 leukemia = test system: RPMI-8226 leukemia
TK-10 renal = test system: TK-10 renal
786-0 renal = test system: 786-0 renal
SNB-75 CNS = test system: SNB-75 CNS
MALME-3M melanoma = test system: MALME-3M melanoma
ACHN renal = test system: ACHN renal
SF-295 CNS = test system: SF-295 CNS
SF-268 CNS = test system: SF-268 CNS
HCT-116 colon = test system: HCT-116 colon
CAKI-1 renal = test system: CAKI-1 renal
NCI-H226 lung = test system: NCI-H226 lung
MOLT-4 leukemia = test system: MOLT-4 leukemia
SR leukemia = test system: SR leukemia
SW-620 colon = test system: SW-620 colon
HOP-62 NSCLC = test system: HOP-62 NSCLC
M14 melanoma = test system: M14 melanoma
PC-3 prostate = test system: PC-3 prostate
MCF7 breast = test system: MCF7 breast
NCI-H23 lung = test system: NCI-H23 lung
HCC-2998 colon = test system: HCC-2998 colon
HL-60(TB) leukemia = test system: HL-60(TB) leukemia
EKVX NSCLC = test system: EKVX NSCLC
A498 renal = test system: A498 renal
OVCAR-5 ovarian = test system: OVCAR-5 ovarian
CCRF-CEM leukemia = test system: CCRF-CEM leukemia
OVCAR-3 ovarian = test system: OVCAR-3 ovarian

## O=P(O)(O)C(O)(Cn1ccnc1)P(=O)(O)O
UO-31 renal
  GI50: > 68.3 µM
  TGI: > 100 µM
SN12C renal
  GI50: > 57.7 µM
  TGI: > 100 µM
OVCAR-4 ovarian
  GI50: > 100 µM
  TGI: > 100 µM
LOX IMVI melanoma
  GI50: > 47 µM
  TGI: > 100 µM
UACC-257 melanoma
  GI50: > 100 µM
  TGI: > 100 µM
NCI-H460 lung
  GI50: > 100 µM
  TGI: > 100 µM
BT-549 breast
  GI50: > 34.4 µM
  TGI: > 100 µM
T-47D breast
  GI50: > 79 µM
  TGI: > 100 µM
HS 578T breast
  GI50: 4.67 µM
  TGI: > 45.5 µM
IGROV1 ovarian
  GI50: 53.5 µM
  TGI: > 100 µM
SK-MEL-2 melanoma
  GI50: > 100 µM
  TGI: > 100 µM
HT29 colon
  GI50: > 90.6 µM
  TGI: > 100 µM
SK-MEL-28 melanoma
  GI50: > 62.8 µM
  TGI: > 100 µM
OVCAR-8 ovarian
  GI50: > 92.3 µM
  TGI: > 100 µM
HCT-15 colon
  GI50: > 100 µM
  TGI: > 100 µM
HOP-92 NSCLC
  GI50: > 41.7 µM
  TGI: > 100 µM
DU-145 prostate
  GI50: > 72.2 µM
  TGI: > 100 µM
MDA-MB-231 breast
  GI50: > 40.6 µM
  TGI: > 57 µM
NCI/ADR-RES ovarian
  GI50: > 64.1 µM
  TGI: > 100 µM
RXF 393 renal
  GI50: > 70.5 µM
  TGI: > 100 µM
NCI-H522 lung
  GI50: > 100 µM
  TGI: > 100 µM
MDA-MB-435
  GI50: > 100 µM
  TGI: > 100 µM
K-562 leukemia
  GI50: > 100 µM
  TGI: > 100 µM
SK-OV-3 ovarian
  GI50: > 81.1 µM
  TGI: > 100 µM
SNB-19 CNS
  GI50: > 81.2 µM
  TGI: > 100 µM
SK-MEL-5 melanoma
  GI50: > 43 µM
  TGI: > 78 µM
KM12 colon
  GI50: > 79.3 µM
  TGI: > 100 µM
UACC-62 melanoma
  GI50: > 65.2 µM
  TGI: > 100 µM
U251 CNS
  GI50: > 59.1 µM
  TGI: > 100 µM
COLO 205 colon
  GI50: > 100 µM
  TGI: > 100 µM
A549 NSCLC
  GI50: > 95.7 µM
  TGI: > 100 µM
SF-539 CNS
  GI50: 20.3 µM
  TGI: > 100 µM
RPMI-8226 leukemia
  GI50: 15.6 µM
  TGI: > 100 µM
TK-10 renal
  GI50: > 36.2 µM
  TGI: > 100 µM
786-0 renal
  GI50: 19 µM
  TGI: > 70 µM
SNB-75 CNS
  GI50: > 37.4 µM
  TGI: > 100 µM
MALME-3M melanoma
  GI50: > 54.1 µM
  TGI: > 100 µM
ACHN renal
  GI50: > 46.2 µM
  TGI: > 84.8 µM
SF-295 CNS
  GI50: > 100 µM
  TGI: > 100 µM
SF-268 CNS
  GI50: > 100 µM
  TGI: > 100 µM
HCT-116 colon
  GI50: > 53.8 µM
  TGI: > 77.9 µM
CAKI-1 renal
  GI50: > 52.9 µM
  TGI: > 100 µM
NCI-H226 lung
  GI50: > 75 µM
  TGI: > 100 µM
MOLT-4 leukemia
  GI50: > 100 µM
  TGI: > 100 µM
SR leukemia
  GI50: > 100 µM
  TGI: > 100 µM
SW-620 colon
  GI50: > 100 µM
  TGI: > 100 µM
HOP-62 NSCLC
  GI50: > 55 µM
  TGI: > 100 µM
M14 melanoma
  GI50: > 53.3 µM
  TGI: > 100 µM
PC-3 prostate
  GI50: > 59.8 µM
  TGI: > 100 µM
MCF7 breast
  GI50: > 86.4 µM
  TGI: > 100 µM
NCI-H23 lung
  GI50: > 89.7 µM
  TGI: > 100 µM
HCC-2998 colon
  GI50: 98.2 µM
  TGI: > 100 µM
HL-60(TB) leukemia
  GI50: > 71.2 µM
  TGI: > 100 µM
EKVX NSCLC
  GI50: > 87.9 µM
  TGI: > 100 µM
A498 renal
  GI50: > 62.8 µM
  TGI: > 100 µM
OVCAR-5 ovarian
  GI50: > 89.2 µM
  TGI: > 100 µM
CCRF-CEM leukemia
  GI50: > 100 µM
  TGI: > 100 µM
OVCAR-3 ovarian
  GI50: > 66.1 µM
  TGI: > 100 µM
